Test results published in US10947271B2, “Antibacterial agents” (THE UNIVERSITY OF QUEENSLAND, priority 2014, dated 2021).

Tests used:
Format in all cases: cell-based
Details in all cases: 24 h incubation, visual reading
[1] = tested on: Enterococcus faecium MDR Van A ATCC 51559; experiment: MIC assay, E. faecium MDR Van A ATCC 51559
Procedure, shortened: (§1)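 Overnight MHB cultures at 37° C were diluted 40-fold and grown 2-3 hrs to mid-log, then added at 5×10e5 CFU/mL to twofold compound dilutions (8 to 0.003 μg/ml). Plates were incubated 24 h at 37° C and MIC scored by eye.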

[2] = tested on: Streptococcus pneumoniae MDR ATCC 700677; experiment: MIC assay, S. pneumoniae MDR ATCC 700677
Procedure, shortened: as §1

[3] = tested on: Staphylococcus aureus MRSA ATCC 43300; experiment: MIC assay, S. aureus MRSA ATCC 43300
Procedure, shortened: as §1

Structure (SMILES)	Minimum Inhibitory Concentration (MIC) E. faecium ATCC51559 [1]	Minimum Inhibitory Concentration (MIC) S. pneumoniae ATCC 700677 [2]	Minimum Inhibitory Concentration (MIC) Staph. aureus ATCC43300 [3]
CNC(=O)C(CCCCNC(=O)C1NC(=O)C2NC(=O)C(NC(=O)C3NC(=O)C(CC(N)=O)NC(=O)C(NC(=O)C(CC(C)C)NC)C(O)c4ccc(c(Cl)c4)Oc4cc3cc(c4OC3OC(CO)C(O)C(O)C3OC3CC(C)(N)C(O)C(C)O3)Oc3ccc(cc3Cl)C2O)c2ccc(O)c(c2)-c2c(O)cc(O)cc21)NC(=O)C(CCCCN)NC(=O)C(CCCCN)NC(=O)c1ccc(Oc2ccc(F)cc2)cc1 (stereo not drawn) [MCC_000514]	x (x = >4)	xxx (xxx = 0.1-<1)	xxx (xxx = 0.1-<1)
CCCCCCCCCC(=O)NC(CCCCN)C(=O)NC(CCCCN)C(=O)NC(CCCCNC(=O)C1NC(=O)C2NC(=O)C(NC(=O)C3NC(=O)C(CC(N)=O)NC(=O)C(NC(=O)C(CC(C)C)NC)C(O)c4ccc(c(Cl)c4)Oc4cc3cc(c4OC3OC(CO)C(O)C(O)C3OC3CC(C)(N)C(O)C(C)O3)Oc3ccc(cc3Cl)C2O)c2ccc(O)c(c2)-c2c(O)cc(O)cc21)C(=O)NC (stereo not drawn) [MCC_000492]	x (x = >4)	xxxxxx	xxxxx (xxxxx = <0.01)
CCCCCCCC(=O)NCCCCC(NC(=O)CCCCCCC)C(=O)NC(CCCCN)C(=O)NC(CCCCNC(=O)C1NC(=O)C2NC(=O)C(NC(=O)C3NC(=O)C(CC(N)=O)NC(=O)C(NC(=O)C(CC(C)C)NC)C(O)c4ccc(c(Cl)c4)Oc4cc3cc(c4OC3OC(CO)C(O)C(O)C3OC3CC(C)(N)C(O)C(C)O3)Oc3ccc(cc3Cl)C2O)c2ccc(O)c(c2)-c2c(O)cc(O)cc21)C(=O)NC (stereo not drawn) [MCC_000490]	x (x = >4)	xxxxx (xxxxx = <0.01)	xxxx (xxxx = 0.01-<0.1)
CCCCCCCCCCC(=O)N[C@@H](CCCCN)C(=O)N[C@@H](CCCCN)C(=O)N[C@@H](CCCCN)C(=O)N[C@@H](CCCCNC(=O)[C@H]1NC(=O)[C@H]2NC(=O)[C@H](NC(=O)[C@@H]3NC(=O)[C@H](CC(N)=O)NC(=O)[C@H](NC(=O)[C@@H](CC(C)C)NC)[C@H](O)c4ccc(c(Cl)c4)Oc4cc3cc(c4O[C@@H]3O[C@H](CO)[C@@H](O)[C@H](O)[C@H]3O[C@H]3C[C@](C)(N)[C@H](O)[C@H](C)O3)Oc3ccc(cc3Cl)[C@H]2O)c2ccc(O)c(c2)-c2c(O)cc(O)cc21)C(=O)NC [MCC_000309]	xxx (xxx = 0.1-<1)	xxxxx (xxxxx = <0.01)	xxxxx (xxxxx = <0.01)
CCCCCCCCCCCCCC(=O)NCCCC[C@H](NC(=O)CCCCCCCCCCCCC)C(=O)N[C@@H](CCCCN)C(=O)N[C@@H](CCCCN)C(=O)N[C@@H](CCCCNC(=O)[C@H]1NC(=O)[C@H]2NC(=O)[C@H](NC(=O)[C@@H]3NC(=O)[C@H](CC(N)=O)NC(=O)[C@H](NC(=O)[C@@H](CC(C)C)NC)[C@H](O)c4ccc(c(Cl)c4)Oc4cc3cc(c4O[C@@H]3O[C@H](CO)[C@@H](O)[C@H](O)[C@H]3O[C@H]3C[C@](C)(N)[C@H](O)[C@H](C)O3)Oc3ccc(cc3Cl)[C@H]2O)c2ccc(O)c(c2)-c2c(O)cc(O)cc21)C(=O)NC [MCC_000771]	x (x = >4)	x (x = >4)	x (x = >4)
CNC(=O)C(CCCCNC(=O)C1NC(=O)C2NC(=O)C(NC(=O)C3NC(=O)C(CC(N)=O)NC(=O)C(NC(=O)C(CC(C)C)NC)C(O)c4ccc(c(Cl)c4)Oc4cc3cc(c4OC3OC(CO)C(O)C(O)C3OC3CC(C)(N)C(O)C(C)O3)Oc3ccc(cc3Cl)C2O)c2ccc(O)c(c2)-c2c(O)cc(O)cc21)NC(=O)C(CCCCN)NC(=O)C(CCCCNC(=O)c1ccc(Oc2ccc(Cl)cc2)cc1)NC(=O)c1ccc(Oc2ccc(Cl)cc2)cc1 (stereo not drawn) [MCC_000517]	xxx (xxx = 0.1-<1)	xxxxxx	xxxx (xxxx = 0.01-<0.1)
CCCCCCCCCCC(=O)N[C@@H](CCCCN)C(=O)N[C@@H](CCCCNC(=O)[C@H]1NC(=O)[C@H]2NC(=O)[C@H](NC(=O)[C@@H]3NC(=O)[C@H](CC(N)=O)NC(=O)[C@H](NC(=O)[C@@H](CC(C)C)NC)[C@H](O)c4ccc(c(Cl)c4)Oc4cc3cc(c4O[C@@H]3O[C@H](CO)[C@@H](O)[C@H](O)[C@H]3O[C@H]3C[C@](C)(N)[C@H](O)[C@H](C)O3)Oc3ccc(cc3Cl)[C@H]2O)c2ccc(O)c(c2)-c2c(O)cc(O)cc21)C(N)=O [MCC_005062]	x (x = >4)	xxxx (xxxx = 0.01-<0.1)	xxxx (xxxx = 0.01-<0.1)
CCCCCCCCCCC(=O)NCCCC[C@H](NC(=O)CCCCCCCCCC)C(=O)N[C@@H](CCCCN)C(=O)N[C@@H](CCCCN)C(=O)N[C@@H](CCCCNC(=O)[C@H]1NC(=O)[C@H]2NC(=O)[C@H](NC(=O)[C@@H]3NC(=O)[C@H](CC(N)=O)NC(=O)[C@H](NC(=O)[C@@H](CC(C)C)NC)[C@H](O)c4ccc(c(Cl)c4)Oc4cc3cc(c4O[C@@H]3O[C@H](CO)[C@@H](O)[C@H](O)[C@H]3O[C@H]3C[C@](C)(N)[C@H](O)[C@H](C)O3)Oc3ccc(cc3Cl)[C@H]2O)c2ccc(O)c(c2)-c2c(O)cc(O)cc21)C(=O)O [MCC_000231]	x (x = >4)	xx (xx = 1-4)	xx (xx = 1-4)
CCCCCCCCCC(=O)N[C@@H](CCCCN1CCOCC1)C(=O)N[C@@H](CCCCNC(=O)[C@H]1NC(=O)[C@H]2NC(=O)[C@H](NC(=O)[C@@H]3NC(=O)[C@H](CC(N)=O)NC(=O)[C@H](NC(=O)[C@@H](CC(C)C)NC)[C@H](O)c4ccc(c(Cl)c4)Oc4cc3cc(c4O[C@@H]3O[C@H](CO)[C@@H](O)[C@H](O)[C@H]3O[C@H]3C[C@](C)(N)[C@H](O)[C@H](C)O3)Oc3ccc(cc3Cl)[C@H]2O)c2ccc(O)c(c2)-c2c(O)cc(O)cc21)C(=O)O [MCC_007379]	x (x = >4)	xx (xx = 1-4)	xx (xx = 1-4)
CCCCCCCCCCCCCC(=O)N[C@@H](CCCCN)C(=O)N[C@@H](CCCCN)C(=O)N[C@@H](CCCCNC(=O)[C@H]1NC(=O)[C@H]2NC(=O)[C@H](NC(=O)[C@@H]3NC(=O)[C@H](CC(N)=O)NC(=O)[C@H](NC(=O)[C@@H](CC(C)C)NC)[C@H](O)c4ccc(c(Cl)c4)Oc4cc3cc(c4O[C@@H]3O[C@H](CO)[C@@H](O)[C@H](O)[C@H]3O[C@H]3C[C@](C)(N)[C@H](O)[C@H](C)O3)Oc3ccc(cc3Cl)[C@H]2O)c2ccc(O)c(c2)-c2c(O)cc(O)cc21)C(N)=O [MCC_000974]	xxx (xxx = 0.1-<1)	xxxxx (xxxxx = <0.01)	xxxxx (xxxxx = <0.01)
CCCCCCc1ccc(C(=O)NC(CCCCN)C(=O)NC(CCCCN)C(=O)NC(CCCCNC(=O)C2NC(=O)C3NC(=O)C(NC(=O)C4NC(=O)C(CC(N)=O)NC(=O)C(NC(=O)C(CC(C)C)NC)C(O)c5ccc(c(Cl)c5)Oc5cc4cc(c5OC4OC(CO)C(O)C(O)C4OC4CC(C)(N)C(O)C(C)O4)Oc4ccc(cc4Cl)C3O)c3ccc(O)c(c3)-c3c(O)cc(O)cc32)C(=O)NC)cc1 (stereo not drawn) [MCC_000499]	xx (xx = 1-4)	xxxx (xxxx = 0.01-<0.1)	xxxx (xxxx = 0.01-<0.1)
CNC(=O)[C@H](CCCCNC(=O)[C@H]1NC(=O)[C@H]2NC(=O)[C@H](NC(=O)[C@@H]3NC(=O)[C@H](CC(N)=O)NC(=O)[C@H](NC(=O)[C@@H](CC(C)C)NC)[C@H](O)c4ccc(c(Cl)c4)Oc4cc3cc(c4O[C@@H]3O[C@H](CO)[C@@H](O)[C@H](O)[C@H]3O[C@H]3C[C@](C)(N)[C@H](O)[C@H](C)O3)Oc3ccc(cc3Cl)[C@H]2O)c2ccc(O)c(c2)-c2c(O)cc(O)cc21)NC(=O)[C@@H](CCCCN)NC(=O)[C@@H](CCCCN)NC(=O)[C@H](CCCCNC(=O)c1ccc(Oc2ccccc2)cc1)NC(=O)c1ccc(Oc2ccccc2)cc1 [MCC_000766]	xx (xx = 1-4)	xxxxx (xxxxx = <0.01)	xxxxx (xxxxx = <0.01)
CCCCCCCCCCCC(=O)NC(CCCCN)C(=O)NC(CCCCN)C(=O)NC(CCCCNC(=O)C1NC(=O)C2NC(=O)C(NC(=O)C3NC(=O)C(CC(N)=O)NC(=O)C(NC(=O)C(CC(C)C)NC)C(O)c4ccc(c(Cl)c4)Oc4cc3cc(c4OC3OC(CO)C(O)C(O)C3OC3CC(C)(N)C(O)C(C)O3)Oc3ccc(cc3Cl)C2O)c2ccc(O)c(c2)-c2c(O)cc(O)cc21)C(=O)NC (stereo not drawn) [MCC_000493]	xx (xx = 1-4)	xxxxx (xxxxx = <0.01)	xxxxx (xxxxx = <0.01)
CCCCCCCc1ccc(C(=O)NC(CCCCN)C(=O)NC(CCCCN)C(=O)NC(CCCCNC(=O)C2NC(=O)C3NC(=O)C(NC(=O)C4NC(=O)C(CC(N)=O)NC(=O)C(NC(=O)C(CC(C)C)NC)C(O)c5ccc(c(Cl)c5)Oc5cc4cc(c5OC4OC(CO)C(O)C(O)C4OC4CC(C)(N)C(O)C(C)O4)Oc4ccc(cc4Cl)C3O)c3ccc(O)c(c3)-c3c(O)cc(O)cc32)C(=O)NC)cc1 (stereo not drawn) [MCC_000500]	xx (xx = 1-4)	xxxxx (xxxxx = <0.01)	xxxxx (xxxxx = <0.01)
